Data from ChEMBL document CHEMBL5303573, “Mapping human microbiome drug metabolism by gut bacteria and their genes” (Nature, 2019).

Assays:
Type in all cases: ADME
Parameters in all cases: dose 2 uM
Conditions in all cases: 2 µM
[1] = biological target: T1, Sialic acid-specific acetylesterase (Bacteroides thetaiotaomicron, UniProt Q8A331); experiment: (§1) The drug is tested on Bacteroides thetaiotaomicron strain: VPI-5482 for biotransformation. The drug concentrations were measured before and after a 12-h incubation by liquid-chromatography-coupled mass spectrometry (LC–MS)
T1 sequence (Q8A331 whole entry): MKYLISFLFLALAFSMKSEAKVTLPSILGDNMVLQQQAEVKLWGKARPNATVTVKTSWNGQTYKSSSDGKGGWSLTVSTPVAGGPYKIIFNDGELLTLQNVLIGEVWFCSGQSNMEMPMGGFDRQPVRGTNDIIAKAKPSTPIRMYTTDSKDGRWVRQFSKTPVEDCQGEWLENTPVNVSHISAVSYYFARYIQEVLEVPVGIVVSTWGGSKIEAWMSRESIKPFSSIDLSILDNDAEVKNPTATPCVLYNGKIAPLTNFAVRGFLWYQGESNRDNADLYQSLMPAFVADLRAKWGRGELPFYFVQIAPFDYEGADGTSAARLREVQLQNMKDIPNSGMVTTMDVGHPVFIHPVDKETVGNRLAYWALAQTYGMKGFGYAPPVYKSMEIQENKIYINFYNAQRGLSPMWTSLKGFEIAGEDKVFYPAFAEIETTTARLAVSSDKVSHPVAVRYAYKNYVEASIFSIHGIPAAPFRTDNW

[2] = biological target: T2, Sialic acid-specific 9-O-acetylesterase (Bacteroides thetaiotaomicron, UniProt Q8A0D0); experiment: as §1
T2 sequence (Q8A0D0 whole entry): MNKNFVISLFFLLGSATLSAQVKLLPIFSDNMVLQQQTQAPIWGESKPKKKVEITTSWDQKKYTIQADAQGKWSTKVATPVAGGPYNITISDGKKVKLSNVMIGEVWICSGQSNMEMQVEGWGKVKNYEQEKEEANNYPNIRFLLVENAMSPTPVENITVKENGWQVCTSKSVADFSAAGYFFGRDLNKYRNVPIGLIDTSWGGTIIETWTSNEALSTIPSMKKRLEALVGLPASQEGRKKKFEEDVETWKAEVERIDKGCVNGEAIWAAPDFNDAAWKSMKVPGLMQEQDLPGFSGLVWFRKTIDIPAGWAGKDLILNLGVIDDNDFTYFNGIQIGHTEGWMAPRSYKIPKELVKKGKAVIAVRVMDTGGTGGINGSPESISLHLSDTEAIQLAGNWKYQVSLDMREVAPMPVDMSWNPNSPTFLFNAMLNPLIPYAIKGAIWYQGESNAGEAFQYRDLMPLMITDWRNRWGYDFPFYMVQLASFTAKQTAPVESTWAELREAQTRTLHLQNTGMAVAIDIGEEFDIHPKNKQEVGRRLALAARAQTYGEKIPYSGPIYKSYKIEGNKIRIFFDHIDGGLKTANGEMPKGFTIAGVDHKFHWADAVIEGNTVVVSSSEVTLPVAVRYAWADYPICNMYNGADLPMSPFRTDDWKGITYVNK

[3] = biological target: T3, SGNH hydrolase-type esterase domain-containing protein (Phocaeicola dorei, UniProt B6VTE7); experiment: (§2) The drug is tested on Bacteroides dorei strain: DSM17855 for biotransformation. The drug concentrations were measured before and after a 12-h incubation by liquid-chromatography-coupled mass spectrometry (LC–MS)
T3 sequence (B6VTE7 whole entry): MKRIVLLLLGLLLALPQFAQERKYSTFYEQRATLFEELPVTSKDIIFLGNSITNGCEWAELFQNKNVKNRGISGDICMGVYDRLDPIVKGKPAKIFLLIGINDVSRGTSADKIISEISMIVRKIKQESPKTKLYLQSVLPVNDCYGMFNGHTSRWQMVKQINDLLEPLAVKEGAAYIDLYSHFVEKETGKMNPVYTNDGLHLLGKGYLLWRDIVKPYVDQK

[4] = biological target: T4, Esterase (Phocaeicola dorei, UniProt B6W2J6); experiment: as §2
T4 sequence (B6W2J6 whole entry): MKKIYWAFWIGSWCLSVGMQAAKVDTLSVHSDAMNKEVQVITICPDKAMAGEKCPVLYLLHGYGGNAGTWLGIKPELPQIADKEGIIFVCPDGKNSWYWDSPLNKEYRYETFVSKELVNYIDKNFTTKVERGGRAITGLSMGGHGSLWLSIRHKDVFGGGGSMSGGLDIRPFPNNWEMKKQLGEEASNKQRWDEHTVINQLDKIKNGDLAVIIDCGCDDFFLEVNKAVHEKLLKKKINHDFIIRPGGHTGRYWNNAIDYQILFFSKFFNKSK

[5] = biological target: T5, Nitroreductase domain-containing protein (Phocaeicola dorei, UniProt B6VU18); experiment: as §2
T5 sequence (B6VU18 whole entry): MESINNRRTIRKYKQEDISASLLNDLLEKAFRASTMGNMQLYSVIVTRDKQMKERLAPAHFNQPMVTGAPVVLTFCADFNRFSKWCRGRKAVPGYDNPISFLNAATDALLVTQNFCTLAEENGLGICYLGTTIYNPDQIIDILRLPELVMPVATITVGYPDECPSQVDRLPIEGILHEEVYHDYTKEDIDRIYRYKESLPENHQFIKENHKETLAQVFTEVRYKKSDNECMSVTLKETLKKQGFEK

[6] = biological target: T6, Nitroreductase domain-containing protein (Phocaeicola dorei, UniProt B6W3P3); experiment: as §2
T6 sequence (B6W3P3 whole entry): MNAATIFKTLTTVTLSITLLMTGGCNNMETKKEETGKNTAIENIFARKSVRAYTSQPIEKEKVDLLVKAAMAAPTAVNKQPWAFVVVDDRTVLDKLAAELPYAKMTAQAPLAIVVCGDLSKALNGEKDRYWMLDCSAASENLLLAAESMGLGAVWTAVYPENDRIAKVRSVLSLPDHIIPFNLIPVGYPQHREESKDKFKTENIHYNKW

[7] = biological target: T7, Acyltransferase 3 domain-containing protein (Phocaeicola dorei, UniProt B6W2J3); experiment: as §2
T7 sequence (B6W2J3 whole entry): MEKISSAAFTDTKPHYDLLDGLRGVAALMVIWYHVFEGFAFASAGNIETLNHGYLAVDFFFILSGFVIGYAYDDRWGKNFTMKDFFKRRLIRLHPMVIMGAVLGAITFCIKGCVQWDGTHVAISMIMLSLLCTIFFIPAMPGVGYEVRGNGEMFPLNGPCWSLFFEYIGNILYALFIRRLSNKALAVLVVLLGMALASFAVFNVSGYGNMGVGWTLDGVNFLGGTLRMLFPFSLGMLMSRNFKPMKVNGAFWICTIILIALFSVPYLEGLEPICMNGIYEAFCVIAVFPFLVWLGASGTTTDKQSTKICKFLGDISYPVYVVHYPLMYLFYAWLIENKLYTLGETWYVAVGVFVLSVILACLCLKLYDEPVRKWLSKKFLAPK

[8] = biological target: T8, SGNH hydrolase-type esterase domain-containing protein (Phocaeicola dorei, UniProt B6W1J1); experiment: as §2
T8 sequence (B6W1J1 whole entry): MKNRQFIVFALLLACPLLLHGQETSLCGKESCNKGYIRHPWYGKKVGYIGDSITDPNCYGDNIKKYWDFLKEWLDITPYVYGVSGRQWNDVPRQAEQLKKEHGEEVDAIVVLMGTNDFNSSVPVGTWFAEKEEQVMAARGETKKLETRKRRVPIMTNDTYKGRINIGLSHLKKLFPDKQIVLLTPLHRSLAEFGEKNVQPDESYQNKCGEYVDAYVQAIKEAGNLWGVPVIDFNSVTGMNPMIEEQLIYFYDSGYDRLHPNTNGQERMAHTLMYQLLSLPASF

Question: Which results are given for `CCS(=O)(=O)CCn1c([N+](=O)[O-])cnc1C` [TINIDAZOLE]?
Answer: Bacterial Biotransformation [1]: Compound NOT metabolized; Bacterial Biotransformation [2]: Compound NOT metabolized; Bacterial Biotransformation [3]: Compound NOT metabolized; Bacterial Biotransformation [4]: Compound NOT metabolized; Bacterial Biotransformation [5]: Compound metabolized; Bacterial Biotransformation [6]: Compound metabolized; Bacterial Biotransformation [7]: Compound NOT metabolized; Bacterial Biotransformation [8]: Compound NOT metabolized
